{
  "source": "patent US20220018828A1",
  "about": "“METHODS AND KIT FOR ASSAYING LYTIC POTENTIAL OF IMMUNE EFFECTOR CELLS” (INSERM (INSTITUT NATIONAL DE LA SANTÉ ET LA RECHERCHE …, priority 2018, published 2022)",
  "tested_on": "melanoma cells (D10)",
  "test": "Membrane turnover assay (FM1-43 uptake by FACS in CTL/target cell conjugates)",
  "type": "cell-based, human",
  "conditions": "D10 cells loaded with antigenic peptide, pretreated 2 h with 50 μM BAPTA-AM, alone or after 5 min conjugation with CTL; compared with untreated cells",
  "protocol": "Loading of target cells: Target cells were left unpulsed or pulsed with 10 μM antigenic peptide during 2 h at 37° C./5% CO2. Cells were washed three times, re-suspended at 15×10^3 to 30×10^3 cells in 25 μl RPMI/5% FCS/HEPES and transferred to a 96-well U-bottom plate.\nIn some experiments, D10 cells were pretreated (2 h) or not with 50 μM BAPTA-AM (ThermoFisher Scientific).\nCTL staining: CTL were stained with 10 μM CellTrace Violet (CTV, ThermoFisher Scientific) for 30 min at 37° C./5% CO2, washed three times and re-suspended at 30×10^3 to 60×10^3 cells per 25 μl RPMI/5% FCS/HEPES.\nConjugation of CTL and target cells: 25 μl of CTL (previously stained with CTV) were added in wells containing pulsed or unpulsed target cells at 2:1 CTL/target cell ratio. Target cells were previously added to three 96-U-bottom plates (one plate per time point: 2, 5 or 15 minutes). A pre-diluted solution of FM1-43 (ThermoFisher Scientific) was prepared at 20 μg/ml. 50 μl of this solution were added to wells containing in 50 μl the cells of interest to have a final concentration of 10 μg/ml. The FM1-43 solution was added to wells at the same time of CTL. Cells were pelleted during 1 minute at 455 g and incubated at 37° C./5% CO2 for 2, 5 or 15 minutes.\nAt the end of the incubation time, 100 μl cold FACS buffer (PBS 1% FBS 1% HS 0.1% azide) supplemented with 0.5 mM EDTA were added to each well on ice. […]",
  "data": [
    {"smiles": "CC(=O)OCOC(=O)CN(CC(=O)OCOC(C)=O)c1ccccc1OCCOc1ccccc1N(CC(=O)OCOC(C)=O)CC(=O)OCOC(C)=O", "note": "[BAPTA-AM]", "values": [
      {"measurement": "FM1-43 uptake (fluorescence intensity) in melanoma cells", "result": "decrease of FM1-43 uptake"}
    ]}
  ]
}
